One assay relates to HUVECs. The assay is described as follows: Transcellular transport of horse radish peroxidase (HRP) across a cell monolayer on filter. The class given is cell-based, human. The method, then: Transport of horse radish peroxidase (HRP) across a cellular membrane was measured using the apparatus shown schematically in FIG. 4, with the addition of biovectors (BVS1 etc). The apparatus comprises upper and lower compartments (1, 2 respectively) separated by a filter 3 on which the cells 4 are grown. HRP and biovectors are added to the medium in the upper compartment 1, and HRP is assayed in the lower compartment 2.
Transcellular transport was determined as above for the HUVECs studies. […]

The test system of assay [1] is receptor located in human umbilical vein endothelial cells (HUVECS). The assay is described as follows: Interaction of designer peptides with FPE-labelled human cells possessing membrane receptor (fluorescence). The class given is binding. The text has this: (§1) The following Examples illustrate the behaviour of various peptides and other molecules that promote transcellular transport of therapeutic molecules etc. These studies make use of techniques that show the interactions of molecules with receptors and cell membranes. […] The underlying theory and application of this technique is outlined in: • Wall, J., Ayoub, F. & O'Shea. P. (1995) J. Cell Sci. 108, 2673–2682 • Cladera, J. and O'Shea, P. (1998) Biophys. J. 74, 2434–2442 • Cladera, J., Martin, I., Ruysschaert, J. M. and O'Shea, P. (1999) J. Biol. Chem. 274, 29951–29959 the teaching of all of which is incorporated herein by reference.
Human umbilical endothelial cells were labelled with FPE and challenged with the indicated amounts of BVS1 peptides. […] Fluorescence was recorded at 518 nm after excitation at 490 nm.
Two separate experiments are shown and offset in the time dimension for clarity. Peptides were added as indicated by the arrows. The BVS1 peptide was added in both experiments. In the second trace, however, addition of BVS1 was preceded by the addition of 300 nM IL-8.

Assay [2] deals with receptor isolated from the HUVECS plasma membrane (albumin receptor protein). The assay is described as follows: Interaction with purified isolated receptor reconstituted into FPE-labelled artificial membranes. The class given is binding, human.
Text: as §1
At the arrows, 5 μM BVS1 was added. Two separate experiments are shown and offset in the time dimension for clarity.

The subject of a further assay is Caco2 cells. The assay is described as follows: Transcellular transport of HRP across monolayers of Caco2 cells. The class given is cell-based. Conditions: Caco2 monolayer, following treatment with 5 μM BVS1 (absence of BVS1: ca 0.001). Here is the method: Caco2 cells were cultured (passage 17–30) with standard methods and used at ca 21 days. Cells were plated at a density of ca. […] on Transwell® filters (2–4 μm, mean pore size).
The viability of cells for transport was assessed on the basis of the transcellular electrical resistance and values […] were assessed as viable.
Transcellular transport was determined as above for the HUVECs studies. In the absence of BVS1 transcellular transport was determined to be ca 0.001 nM min^−1.
In general terms: Passage across Caco-2 layers is used to estimate intestinal permeability.

Where [3] appears, read: +5 μM biovector, over baseline 0.003 nM/min^−1.

Six substances from patent US7049295B2, “Compounds and use thereof to modify transport across cell membranes” (Biotransys Limited, priority 1999, dated 2006) can be followed below.

In the assay on HUVECs (setting [3]), AGIGALFLGFLGAAG [BVS16] yielded a Facilitated transport of 9 X Fold.
In the case of AVGIGALFLGFLGAAG [BVS1], the “binding to receptor (FPE fluorescence)” value in assay [1] (HUVECS labelled with FPE) is given as “clearly binds to a receptor”. Moreover, the “binding to receptor after prior addition of IL-8” value in assay [1] (addition of BVS1 preceded by 300 nM IL-8) is on record as “unable to bind”. Also, the “binding to reconstituted isolated receptor (FPE fluorescence increase)” value in assay [2] (5 μM BVS1) was “clearly binds to a receptor”. Also, the “binding to reconstituted isolated receptor after prior addition of human serum albumin” value in assay [2] (5 μM BVS1 preceded by 5 μM human serum albumin) is given as “unable to bind”. Moreover, the transcellular transport in the assay with Caco2 cells amounted to 0.02 nM/min. In addition, the Facilitated transport with HUVECs (+5 μM PSNU then +5 μM BVS1) is 3/0; in the assay with HUVECs (setting [3]), 15 X Fold.
In the assay on HUVECs (setting [3]), GVFVLGFLGFLATAGS [BVS9] displayed a Facilitated transport of 7 X Fold.
The same measure, in the same setting: for GVFVLGLFGFLA [BVS5] the value was 22 X Fold.
In the case of interleukin-8 [IL-8], the “binding of IL-8 to the receptor targeted by BVS1” value in assay [1] (300 nM IL-8) is “appears to bind”.
As for “polysulfonylnaphthylurea [PSNU, reference compound]”, the “interaction with reconstituted albumin receptor protein (FPE)” value in assay [2] (2 μM PSNU) is given as “interactions take place”. For the same substance, in the assay with HUVECs (setting [3]), the Facilitated transport came out at 3 X Fold.
